Reference: ChEMBL document CHEMBL6103615, “Thymidylate Kinase-Targeted Antimicrobial Peptides via Phage Display: A Novel Strategy against Gram-Negative Bacteria” (J Med Chem, 2025)
Values after ≈ are worked out from the molar mass of the structure shown. Active and inactive are the calls of the source. The calls are words filed in the database; no cut-off is given here.

Tests used:
Escherichia coli [1] = assay: Antibacterial activity against Escherichia coli K88 incubated for 12 to 18 hrs by microbroth dilution method; type: functional; conditions: time 12-18 hrs
Enterococcus faecalis = assay: Antibacterial activity against Enterococcus faecalis 29212 incubated for 12 to 18 hrs by microbroth dilution method; type: functional; conditions: time 12-18 hrs
[2] = Cytotoxicity against mouse RAW264.7 cells assessed as cell viability at 128 uM incubated for 4 hrs by MTT assay relative to control; type: toxicity, cell-based; conditions: read-out: Activity
Staphylococcus aureus [3] = assay: Antibacterial activity against Staphylococcus aureus 25923 incubated for 12 to 18 hrs by microbroth dilution method; type: functional; conditions: time 12-18 hrs
[4] = Cytotoxicity against porcine IPEC-J2 cells assessed as cell viability at 128 uM incubated for 4 hrs by MTT assay relative to control; type: toxicity, cell-based, Sus scrofa; conditions: pig, read-out: Activity
[5] = test system: Staphylococcus epidermidis; assay: Antibacterial activity against Staphylococcus epidermidis 12228 incubated for 12 to 18 hrs by microbroth dilution method; type: functional; conditions: time 12-18 hrs
Escherichia coli [6] = assay: Antibacterial activity against Escherichia coli 078 incubated for 12 to 18 hrs by microbroth dilution method; type: functional; conditions: time 12-18 hrs
Pseudomonas aeruginosa [7] = assay: Antibacterial activity against Pseudomonas aeruginosa PAO1 incubated for 12 to 18 hrs by microbroth dilution method; type: functional; conditions: time 12-18 hrs
[8] = Antibacterial activity against Salmonella choleraesuis 21493 incubated for 12 to 18 hrs by microbroth dilution method; type: functional, Salmonella enterica subsp. enterica serovar Choleraesuis; conditions: Salmonella enterica, time 12-18 hrs
Escherichia coli [9] = assay: Antibacterial activity against Escherichia coli 1515 incubated for 12 to 18 hrs by microbroth dilution method; type: functional; conditions: time 12-18 hrs
Lactococcus lactis = assay: Antibacterial activity against Lactococcus lactis NZ9000 incubated for 12 to 18 hrs by microbroth dilution method; type: functional; conditions: time 12-18 hrs
[10] = test system: Lacticaseibacillus rhamnosus; assay: Antibacterial activity against Lactobacillus rhamnosus 7469 incubated for 12 to 18 hrs by microbroth dilution method; type: functional; conditions: time 12-18 hrs
Salmonella typhimurium = assay: Antibacterial activity against Salmonella typhimurium 7731 incubated for 12 to 18 hrs by microbroth dilution method; type: functional, Salmonella enterica subsp. enterica serovar Typhimurium; conditions: Salmonella enterica, time 12-18 hrs
Staphylococcus aureus [11] = assay: Antibacterial activity against Staphylococcus aureus 29213 incubated for 12 to 18 hrs by microbroth dilution method; type: functional; conditions: time 12-18 hrs
Staphylococcus aureus [12] = assay: Antibacterial activity against methicillin-resistant Staphylococcus aureus 43300 incubated for 12 to 18 hrs by microbroth dilution method; type: functional; conditions: time 12-18 hrs
[13] = Hydrophobicity of compound; type: physicochemical
Escherichia coli [14] = assay: Antibacterial activity against Escherichia coli K99 incubated for 12 to 18 hrs by microbroth dilution method; type: functional; conditions: time 12-18 hrs
[15] = Relative hydrophobic moment of compound; type: physicochemical
Pseudomonas aeruginosa [16] = assay: Antibacterial activity against Pseudomonas aeruginosa 27853 incubated for 12 to 18 hrs by microbroth dilution method; type: functional; conditions: time 12-18 hrs
[17] = test system: Lactiplantibacillus plantarum; assay: Antibacterial activity against Lactobacillus plantarum 8014 incubated for 12 to 18 hrs by microbroth dilution method; type: functional; conditions: time 12-18 hrs
[18] = Hemolytic activity against human red blood cells at 2 to 128 uM relative to control; type: toxicity, cell-based, Erythrocyte; conditions: dose 2-128 µM, read-out: Activity
Escherichia coli [19] = assay: Binding affinity to Escherichia coli K88 TMK at 128 uM by BLI assay
Escherichia coli [20] = assay: Binding affinity to Escherichia coli K88 TraV at 128 uM by BLI assay
Bacteria [21] = assay: Antibacterial activity against bacterial cells at 100 degreeC at 1 to 64 uM incubated for 60 mins; type: functional, organism-based; conditions: dose 1-64 µM
Escherichia coli [22] = assay: Induction of morphological changes in Escherichia coli K88 assessed as cytoplasmic leakage at 2 uM incubated for 1 hr by TEM analysis; type: functional, organism-based
Bacteria [23] = assay: Antibacterial activity against bacterial cells at 1 to 128 uM in presence of NaCl; type: functional, organism-based; conditions: dose 1-128 µM
Escherichia coli [24] = assay: Induction of morphological changes in Escherichia coli K88 assessed as membrane contraction at 2 uM incubated for 1 hr by SEM analysis; type: functional, organism-based
Bacteria [25] = assay: Antibacterial activity against bacterial cells at pH 2 to 12; type: functional
Bacteria [26] = assay: Antibacterial activity against bacterial cells at pH 2; type: functional
Bacteria [27] = assay: Antibacterial activity against bacterial cells at 1 to 128 uM in presence of CaCl; type: functional, organism-based; conditions: dose 1-128 µM
Escherichia coli [28] = assay: Inhibition of DNA migration in Escherichia coli K88 at 64 uM incubated for 40 mins by agarose gel electrophoresis.; type: functional, organism-based
Escherichia coli [29] = assay: Induction of resistance development in Escherichia coli K88 at sub-MIC measured after 20 passages; type: functional, organism-based
Escherichia coli [30] = assay: Induction of morphological changes in Escherichia coli K88 assessed as membrane folding at 2 uM incubated for 1 hr by SEM analysis; type: functional, organism-based
Escherichia coli [31] = assay: Induction of ROS generation in Escherichia coli K88 assessed as increase in fluorescence intensity incubated for 1 hr by DCFH-DA dye based analysis; type: functional, organism-based
Escherichia coli [32] = assay: Induction of morphological changes in Escherichia coli K88 assessed as membrane permeability at edges at 2 uM incubated for 1 hr by TEM analysis; type: functional, organism-based
Bacteria [33] = assay: Antibacterial activity against bacterial cells at 1 to 64 uM incubated for 4 hrs in presence of 50 percent serum; type: functional, organism-based; conditions: dose 1-64 µM
Bacteria [34] = assay: Antibacterial activity against bacterial cells at pH 12; type: functional
[35] = Binding affinity to 6xHis-tagged recombinant Escherichia coli TMK assessed as dissociation constant by BLI assay
Escherichia coli [36] = assay: Disruption of membrane integrity in Escherichia coli K88 at 2 uM by PI staining based flow cytometry (reference value: 0.1 %); type: functional
[37] = Effect on secondary structure of compound in PBS assessed as formation of alpha-helical conformation at 100 uM by CD analysis; type: physicochemical; conditions: buffer
Bacteria [38] = assay: Antibacterial activity against bacterial cells at pH 4 to 10; type: functional

Row | Molecule | MIC (Escherichia coli [1]) [µM] | MIC (Enterococcus faecalis) [µM] | viability at 4 h, 128 µM [2] [%] | MIC (Staphylococcus aureus [3]) [µM] | viability at 4 h, 128 µM [4] [%] | MIC [5] [µM] | MIC (Escherichia coli [6]) [µM] | MIC (Pseudomonas aeruginosa [7]) [µM] | MIC [8] [µM] | MIC (Escherichia coli [9]) [µM] | MIC (Lactococcus lactis) [µM] | MIC [10] [µM] | MIC (Salmonella typhimurium) [µM] | MIC (Staphylococcus aureus [11]) [µM] | MIC (Staphylococcus aureus [12]) [µM] | Activity [13] | MIC (Escherichia coli [14]) [µM] | Activity [15] | MIC (Pseudomonas aeruginosa [16]) [µM] | MIC [17] [µM] | further results
1 | H-FASSHPSWKKIWKPGIKKWIK-OH | 32 | 128 | > 80 | 128 | > 80 | 128 | 32 | 16 | 16 | 32 | 128 | 128 | 16 | 128 | 128 | 0.465 | 32 | 0.55 | 32 | 128 | –
2 | H-WTSNDTAWKKIWKPGIKKWIK-OH | 64 | 128 | > 80 | 128 | > 80 | 128 | 128 | 64 | 64 | 64 | 128 | 128 | 64 | 128 | 128 | 0.41 | 64 | 0.532 | 128 | 128 | hemolysis at up to 128 µM [18]: < 5%
3 | H-RLTTMVHWKKIWKPGIKKWIK-OH | 4 | 128 | > 80 | 128 | > 80 | 128 | 8 | 4 | 16 | 8 | 128 | 128 | 8 | 128 | 128 | 0.51 | 8 | 0.439 | 8 | 128 | hemolysis at up to 128 µM [18]: < 5%
4 | CC[C@@H](C)[C@H](NC(=O)CNC(=O)[C@@H]1CCCN1C(=O)[C@H](CCCCN)NC(=O)[C@H](Cc1c[nH]c2ccccc12)NC(=O)[C@@H](NC(=O)[C@H](CCCCN)NC(=O)[C@H](CCCCN)NC(=O)[C@H](Cc1c[nH]c2ccccc12)NC(=O)[C@H](Cc1ccc(O)cc1)NC(=O)[C@H](CCCCN)NC(=O)[C@@H](NC(=O)[C@H](CC(C)C)NC(=O)[C@H](CC(N)=O)NC(=O)CNC(=O)[C@H](CO)NC(=O)CCCC[C@@H]1SC[C@@H]2NC(=O)N[C@@H]21)[C@@H](C)O)[C@@H](C)CC)C(=O)N[C@@H](CCCCN)C(=O)N[C@@H](CCCCN)C(=O)N[C@@H](Cc1c[nH]c2ccccc12)C(=O)N[C@H](C(=O)N[C@@H](CCCCN)C(=O)O)[C@H](C)CC | – | – | – | – | – | – | – | – | – | – | – | – | – | – | – | – | – | – | – | – | Activity (Escherichia coli [19]): Active; Activity (Escherichia coli [20]): Active
5 | H-HSDANAWWKKIWKPGIKKWIK-OH | 32 | 128 | > 80 | 128 | > 80 | 128 | 8 | 16 | 16 | 16 | 128 | 128 | 32 | 128 | 128 | 0.406 | 16 | 0.455 | 32 | 128 | –
6 | H-EMPGYNSWKKIWKPGIKKWIK-OH | 32 | 128 | > 80 | 128 | > 80 | 128 | 128 | 32 | 64 | 64 | 128 | 128 | 64 | 128 | 128 | 0.408 | 32 | 0.475 | 64 | 128 | hemolysis at up to 128 µM [18]: < 5%
7 | H-WKKIWKPGIKKWIK-OH | 16 | 128 | > 80 | 128 | > 80 | 128 | 32 | 16 | 16 | 32 | 128 | 128 | 32 | 128 | 128 | 0.495 | 16 | 0.727 | 32 | 128 | Activity (Bacteria [21]): Active; Activity (Escherichia coli [22]): inactive; Activity (Bacteria [23]): inactive; Activity (Escherichia coli [24]): inactive; MIC (Bacteria [25]): 16 µM; MIC (Bacteria [26]): 32 µM; Activity (Bacteria [27]): inactive; hemolysis at up to 128 µM [18]: < 5%; inhibition (Escherichia coli [28]): Active; Activity (Escherichia coli [29]): inactive; Activity (Escherichia coli [30]): inactive; Activity (Escherichia coli [31]): Dose-dependent-effect; Activity (Escherichia coli [32]): inactive; Activity (Bacteria [33]): Active; MIC (Bacteria [34]): 32 µM; Kd [35]: < 1 pM; Activity (Escherichia coli [36]): 16.3%; Activity [37]: Active; MIC (Bacteria [38]): 16 µM
8 | H-YTVSATYWKKIWKPGIKKWIK-OH | 8 | 128 | > 80 | 128 | > 80 | 128 | 8 | 8 | 16 | 8 | 128 | 128 | 8 | 128 | 128 | 0.517 | 8 | 0.452 | 32 | 128 | hemolysis at up to 128 µM [18]: < 5%
9 | H-CFASAPRWKKIWKPGIKKWIK-OH [listing 1 of 2 here] | 8 | 128 | – | 128 | – | 128 | 16 | 8 | 16 | 8 | 128 | 128 | 16 | 128 | 128 | – | 16 | – | 32 | 128 | –
10 | H-CFASAPRWKKIWKPGIKKWIK-OH [listing 2 of 2 here] | – | – | > 80 | – | > 80 | – | – | – | – | – | – | – | – | – | – | 0.502 | – | 0.562 | – | – | hemolysis at up to 128 µM [18]: < 5%
11 | CC[C@H](C)[C@H](NC(=O)CN)C(=O)NCC(=O)N[C@@H](C)C(=O)N[C@H](C(=O)N[C@@H](CC(C)C)C(=O)N[C@@H](CCCCN)C(=O)N[C@H](C(=O)N[C@@H](CC(C)C)C(=O)N[C@H](C(=O)N[C@H](C(=O)NCC(=O)N[C@@H](CC(C)C)C(=O)N1CCC[C@H]1C(=O)N[C@@H](C)C(=O)N[C@@H](CC(C)C)C(=O)N[C@H](C(=O)N[C@@H](CO)C(=O)N[C@@H](Cc1c[nH]c2ccccc12)C(=O)N[C@H](C(=O)N[C@@H](CCCCN)C(=O)N[C@@H](CCCNC(=N)N)C(=O)N[C@@H](CCCCN)C(=O)N[C@@H](CCCNC(=N)N)C(=O)N[C@@H](CCC(N)=O)C(=O)N[C@@H](CCC(N)=O)C(N)=O)[C@@H](C)CC)[C@@H](C)CC)[C@@H](C)O)[C@@H](C)O)C(C)C)C(C)C [MELITTIN] | – | 2 (≈ 5.69 µg/mL) | > 80 | – | > 80 | – | – | – | 4 (≈ 11.4 µg/mL) | – | 2 (≈ 5.69 µg/mL) | 2 (≈ 5.69 µg/mL) | – | – | – | – | – | – | – | 2 (≈ 5.69 µg/mL) | hemolysis at up to 128 µM [18]: < 5%
